The results in this text go back to ChEMBL document CHEMBL1134025, “Thiosugars. Part 9: synthesis and biological evaluation of some 4'-thio-L-arabino nucleoside analogues” (2001).

In brackets after ≈: the same amount, converted by molar mass.

The test system of the test is Vaccinia virus. The test can be described thus: Minimum inhibitory concentration required to reduce Vaccinia virus induced cytopathogenicity by 50%. The conditions noted are these: Orthopoxvirus vaccinia. Format: functional. For orientation: Protection from cytopathic effect is a common read-out in antiviral testing.
`O=c1ccn([C@@H]2S[C@@H](CO)[C@H](O)[C@H]2O)c(=O)[nH]1` showed an MIC of 400 µg/mL (≈ 1540 µM).
`Nc1ncnc2c1ncn2[C@@H]1S[C@@H](CO)[C@H](O)[C@H]1O` came in with an MIC of 400 µg/mL (≈ 1410 µM).
`O=c1ccn([C@H]2S[C@@H](CO)[C@H](O)[C@H]2O)c(=O)[nH]1` came in with an MIC of 400 µg/mL (≈ 1540 µM).
Consider `Cc1cn([C@@H]2S[C@@H](CO)[C@H](O)[C@H]2O)c(=O)[nH]c1=O`, for which the MIC was 400 µg/mL (≈ 1460 µM).
`Cc1cn([C@H]2S[C@@H](CO)[C@H](O)[C@H]2O)c(=O)[nH]c1=O` registered an MIC of 400 µg/mL (≈ 1460 µM).
In turn, `Nc1ccn(C2S[C@@H](CO)[C@H](O)[C@H]2O)c(=O)n1` (some centres not stated) yielded an MIC of 400 µg/mL (≈ 1540 µM).
For `Nc1ncnc2c1ncn2[C@H]1S[C@@H](CO)[C@H](O)[C@H]1O`, the MIC turned out to be 400 µg/mL (≈ 1410 µM).
